Test results: the supplement of paper PMC5770543
± gives the standard deviation.

How the values were obtained:
[1] = tested on: Toxoplasma gondii RH tachyzoites; assay: % growth inhibition vs DMSO (48 h luciferase); higher = more inhibition; conditions: 10 µM
[2] = tested on: Plasmodium falciparum 3D7; assay: % inhibition of schizont-to-ring transition vs DMSO; higher = more inhibition
In short: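 Tightly synchronised P. falciparum schizonts (about 40–42 hours post-invasion, 1% parasitemia, 2.5% hematocrit, AlbuMAX-supplemented RPMI) were exposed to compound at 1, 3 or 10 µM, with vehicle and positive controls. Cells were glutaraldehyde-fixed, Triton-permeabilised, stained with Hoechst 33342 and counted by flow cytometry (at least 100,000 events). Schizont-to-ring transition inhibition is new ring formation relative to vehicle controls, averaged over three experiments.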

[3] = tested on: Plasmodium falciparum 3D7; assay: EC50 growth inhibition (60 h, SYBR Green); conditions: stage: ring-stage start
[4] = target: Toxoplasma gondii RH tachyzoites; assay: EC50 growth inhibition (48 h luciferase)
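For % growth inhibition vs DMSO (48 h luciferase) in this document: tested in triplicate wells of 96-well plates on confluent HFF monolayers, with 1% DMSO wells as negative control in four replicates.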

| Compound | % growth inhibition [1] | % inhibition of schizont-to-ring transition ([2]; 1 µM) | % inhibition of schizont-to-ring transition ([2]; 3 µM) | % inhibition of schizont-to-ring transition ([2]; 10 µM) | EC50 growth inhibition [3] | EC50 growth inhibition [4] |
| --- | --- | --- | --- | --- | --- | --- |
| CCOc1ccc(Nc2c3ccccc3nc3ccccc23)cc1 | 100.1 ± 0.26% | 45.1% | 58.5% | 68.8% | 529 nM | 884 nM |
| Cc1cc(N(C)C)nc(Nc2ccc(NC(=O)Nc3ccccc3)cc2)n1 | 95.4 ± 1.2% | 41.8% | 56.5% | 71.1% | 236 nM | 1990 nM |
| COc1cc(CNCCc2ccc(Cl)cc2)cc(OC)c1O | 51.4 ± 14% | 3.17% | 4.67% | 38.3% | 1780 nM | 5990 nM |
| OC(CNCc1ccccc1)Cn1c2ccccc2c2ccccc21 (stereo not drawn) | 48.3 ± 2% | 37.8% | 43% | 65.5% | 2200 nM | 286 nM |
| FC(F)(F)c1cccc(Nc2nc3ccccc3nc2Nc2cccc(C(F)(F)F)c2)c1 | 99.49 ± 0.16% | < 0% | 15.6% | 42.7% | 6400 nM | 46.4 nM |
| Cc1cc(N2CCCC2)nc(Nc2ccc(NC(=O)CCc3ccccc3)cc2)n1 | 96.07 ± 0.93% | 55.6% | 62.1% | 67.5% | 139 nM | 102 nM |
| COc1ccc(Nc2nc(NCc3ccccc3)c3ccccc3n2)cc1 | 100.5 ± 0.45% | 26.4% | 34.8% | 48% | 104 nM | 763 nM |
| CCc1ccc(Nc2cc(C)c3ccc(O)cc3n2)cc1 | 97.8 ± 1.4% | 58.8% | 82.3% | 80.4% | 286 nM | 3050 nM |
| COCCN(C(=O)Cc1cccs1)C(C(=O)NCc1ccc(OC)cc1)c1ccc(C(C)C)cc1 (stereo not drawn) | 91.5 ± 3.5% | 10.9% | 13.7% | 21.6% | 935 nM | 2420 nM |
| Nc1ccc(-c2nc3cc(Oc4ccc(Oc5ccc6[nH]c(-c7ccc(N)cc7)nc6c5)cc4)ccc3[nH]2)cc1 | 100.27 ± 0.078% | 23.6% | 43.2% | 60.7% | 253 nM | 1610 nM |
| O=C(NC(c1ccccc1)c1ccc2cccnc2c1O)c1ccccc1 (stereo not drawn) | 99.71 ± 0.23% | 13.5% | 35.6% | 53.7% | 3660 nM | 770 nM |
| COCCNCC(O)Cn1c2ccc(Cl)cc2c2cc(Cl)ccc21 (stereo not drawn) | 99.95 ± 0.13% | 5.35% | 32.1% | 67.1% | 700 nM | 6290 nM |
| CC(C)(C)CC(C)(C)NCC(O)COc1ccc(Cl)cc1Cl (stereo not drawn) | 99.763 ± 0.02% | 22.6% | 40.4% | 78.1% | 576 nM | 2050 nM |
| COc1ccc(/C=C2/SC(Nc3ccc(F)cc3)=NC2=O)c(OC)c1 | 92 ± 2.3% | 23.5% | 31.5% | 54.2% | 880 nM | 7.69 nM |
| O=c1nc(C=Cc2ccc(Br)cc2)oc2ccccc12 | 99.06 ± 0.14% | 15.3% | 24.2% | 54% | 1770 nM | 116 nM |
| CCOc1ccc(/C=C/c2nc(=O)c3ccccc3o2)cc1 | 97.94 ± 0.17% | 13.3% | 41.5% | 69.3% | 657 nM | 21.7 nM |
| Cc1cc(Nc2cccc(F)c2)nc(NCc2ccccc2)n1 | 97.33 ± 0.9% | 43.1% | 60.2% | 70.5% | 149 nM | 879 nM |

| Compound | % growth inhibition [1] | % inhibition of schizont-to-ring transition ([2]; 1 µM) | % inhibition of schizont-to-ring transition ([2]; 3 µM) | % inhibition of schizont-to-ring transition ([2]; 10 µM) | EC50 growth inhibition [3] | EC50 growth inhibition [4] |
| --- | --- | --- | --- | --- | --- | --- |
| Cc1sc(NC(=O)c2ccccc2)c(C(c2cccs2)N2CCN(c3ccccc3)CC2)c1C (stereo not drawn) | 88.7 ± 5.2% | 5.65% | 10.7% | 36.5% | 1930 nM | 550 nM |
| CN(C)CCCNc1c2ccccc2nc2ccccc12 | 100.3 ± 0.38% | 28.1% | 37.7% | 40.7% | 92.8 nM | 1480 nM |
| O=C1c2ccc3c4c(ccc(c24)C(=O)N1CCCCO)C(=O)N(CCCCO)C3=O | 99.55 ± 0.29% | 9.23% | 16.9% | 64.2% | 4810 nM | 421 nM |
| CC1CC2=C(CC1CNCCCN(C)C)C(C)(C)CCC2 (stereo not drawn) | 99.59 ± 0.27% | 9.39% | 52.2% | 73.9% | 618 nM | 3170 nM |
| COc1ccc2nc(C)cc(Nc3ccc(Cl)cc3)c2c1 | 99.3 ± 1% | 24.7% | 39.5% | 56.8% | 477 nM | 556 nM |
| CCOc1ccc2nc(C)cc(Nc3ccc(N(C)C)cc3)c2c1 | 98.02 ± 0.4% | 44.9% | 65.7% | 69.3% | 410 nM | 1440 nM |
| CN(C)c1ccc(C=Cc2nc(=O)c3ccccc3o2)cc1 | 99.12 ± 0.036% | 44.1% | 60.6% | 70.1% | 522 nM | 264 nM |
| O=C(Nc1ccc(N2CCN(Cc3ccccc3)CC2)cc1)c1cccs1 | 91.82 ± 0.81% | 22.9% | 21.2% | 39.3% | 1870 nM | 183 nM |
| COc1cc(C(=O)Nc2ccc(-c3nc4ccccc4[nH]3)cc2)cc(OC)c1OC | 91.42 ± 0.58% | < 0% | 9.26% | 43.1% | 788 nM | 4730 nM |
| Cc1ccccc1OCCSc1nc2ccc(NC(=O)c3cccs3)cc2s1 | 99.844 ± 0.082% | 10.7% | 28.6% | 55.5% | 3730 nM | 1160 nM |
| CN(C)CCCNCc1ccc(-c2ccc(F)c(Cl)c2)o1 | 92.8 ± 3.3% | 12.5% | 38.8% | 63.5% | 601 nM | 1660 nM |
| N=c1n(CCN2CCCCC2)c2ccccc2n1CC(=O)c1ccc(Cl)c(Cl)c1 | 99.931 ± 0.065% | 36.2% | 57.9% | 80.4% | 237 nM | 1820 nM |
| CCCCCCc1cc(O)c2c3c(c(=O)oc2c1)CCC(C)C3 (stereo not drawn) | 99.37 ± 0.72% | 18.6% | 34.9% | 52.4% | 3410 nM | 471 nM |
| COc1ccc(Nc2nc(N/N=C/c3ccc(O)cc3)nc(Nc3ccc([N+](=O)[O-])cc3)n2)cc1 | 100.2 ± 0.27% | 20.8% | 44% | 63% | 1100 nM | 2630 nM |
| O=C(Nc1ccccc1O)c1ccc(Oc2cccc(C(=O)Nc3ccccc3O)c2)cc1 | 99.35 ± 0.37% | 0.57% | 30% | 46.7% | 1840 nM | 1670 nM |
| COc1ccc(-c2nc3cc(Cc4ccc5[nH]c(-c6ccc(OC)cc6)nc5c4)ccc3[nH]2)cc1 | 100 ± 0.58% | 50.4% | 65.3% | 68.3% | 185 nM | 1470 nM |
